Experimental data taken from PMC13128454, “Mutant p53 protein accumulation is selectively targetable by proximity-inducing drugs” (Nature Chemical Biology, 2025).
Where “and” joins values, the source holds several entries; their conditions need not be identical. Identical values can stand only once. Like-named read-outs stand apart in the source and are kept apart here.

How the values were obtained:
Assay type in all cases: cell-based
[1] = system: 293T cells stably expressing Halo–p53-Y220C ΔTAD–mCherry versus parental 293T cells; test: crystal violet staining; settings: 5 days
Protocol: The 293T cells were plated in six-well or 12-well plates at low density (~10% confluence) and treated with compound for the indicated duration. Cells were rinsed once with PBS and then stained with crystal violet (0.5% m/v) in 20% methanol–water for 10 min. Cells were washed with water five times and air-dried overnight.

[2] = CellTiter-Glo cell viability; parameters: p5301_AUC_to_10uM / AUC_rezatapopt: scale not given here; viability, replicates (sheet 4G): unit not given here; settings: human, MFE319 cells, No PMV6, read-out: viability, replicates (sheet 4G)
Protocol: (§1) Cells were plated in 384-well plates (typically 1,500 cells per well) with varying concentrations of compounds, with a total volume of 50 μl per well. CTG reagent was added (25 μl) to the solutions, mixed and read out using an EnVision 2105 multimode plate reader.

MFE319 cells = test: CellTiter-Glo cell viability; parameters: p5301_AUC_to_10uM / AUC_rezatapopt: scale not given here; viability, replicates (sheet 4G): unit not given here; settings: for mean_norm (normalized viability): 4 day; for viability, replicates (sheet 4G): No PMV6
Protocol: as §1

[3] = system: PLK1 targets (cyclin B1, phospho-PLK-binding motif) in Halo–p53-Y220C ΔTAD–mCherry 293T cells; test: western blot for PLK1 targets; settings: 8.5 h, double thymidine block
Protocol: (§2) Cells were split into a 10-cm dish at low confluency (20%) and grown overnight. Cells were synchronized with double thymidine block. Cells were treated with thymidine (2 mM) overnight and released into fresh medium for 8.5 h and then retreated with thymidine (2 mM) overnight. Cells were split into a six-well plate and released into medium containing compound for 8.5 h. Cells were pelleted and protein lysates were created using RIPA buffer containing Halt phosphatase and protease inhibitor (Thermo Fisher, 78440). Lysates were clarified by centrifugation (21,000g for 15 min) and the supernatant was denatured in 1× Lamelli buffer containing DTT by heating at 95 °C for 5 min. The resulting protein was loaded onto a Tris–acetate gel, transferred onto a PVDF membrane and treated with primary antibodies: cyclin B1 (D5C10, Cell Signaling Technologies, 12231T; 1:1,000) and phospho-PLK-binding motif (D73F6, Cell Signaling Technologies, 5243T; 1:1,000). The membrane was stained with IRDye 800CW goat anti-rabbit IgG secondary antibody (Licor Biosciences; 1:20,000) and imaged on an Odyssey DLx.

[4] = system: PLK1 targets (cyclin B1, phospho-PLK-binding motif) in parental 293T cells; test: western blot for PLK1 targets; settings: 8.5 h, double thymidine block
Protocol: as §2

[5] = molecular target: T1, p53-Y220C–PLK1 ternary complex (Homo sapiens, UniProt P04637+P53350, M133L/N239Y/N268D/V203A/Y220C); test: NanoBiT ternary complex assay in cotransfected 293T cells; settings: for NLuc Signal, Average: 0 nM: 323
T1 construct: NLS–LgBiT–p53-Y220C (DBD) and mEGFP–PLK1–SmBiT; expressed in transfected cells; host or cells: 293T cells, transient cotransfection
Text: After 1 day, the cells were passaged into 384-well plates and treated with varying concentrations of compound.

[6] = system: Halo–p53-Y220C ΔTAD–mCherry 293T cells; test: 3-week culture with compound, mCherry^− fraction by FACS; settings: 250 nM, 3 weeks
[7] = p53-01 Concentration (µM) 0.0390625
[8] = p53-01 Concentration (µM) 0.078125
[9] = p53-01 Concentration (µM) 0.625
[10] = Concentration 2.44141 nM, 1 day
[11] = Concentration 4.88281 nM, 1 day
[12] = Concentration 9.76562 nM, 1 day
[13] = Concentration 19.5312 nM, 1 day
[14] = Concentration 39.0625 nM, 1 day

CC[C@@H]1C(=O)N(C)c2cnc(Nc3ccc(C(=O)NCCOCCOCCOCCOCCC(=O)N4CCC(Nc5cccc6c5cc(C#CCNc5ccc(S(C)(=O)=O)cc5OC)n6CC(F)(F)F)CC4)cc3OC)nc2N1C1CCCC1 [p53-01, PMV6-PEG4-BI2536]
crystal violet staining [1]: differential antiproliferative activity
viability at 0.0390625 µM [2, 7]: 94%
viability at 0.078125 µM [2, 8]: 99.7%
viability at 0.625 µM [2, 9]: 85.4%
viability at 1.25 µM ([2]; p53-01 Concentration (µM) 1.25): 61.2%
viability at 2.5 µM ([2]; p53-01 Concentration (µM) 2.5): 41.5%
viability at 5 µM ([2]; p53-01 Concentration (µM) 5): 30%
viability at 10 µM ([2]; p53-01 Concentration (µM) 10): 22.2%
IC50 (MFE319 cells; 96 h, MFE319, 4 day treatment): 1270 nM
p5301_AUC_to_10uM (MFE319 cells; MFE319): 0.3547
mean_norm (normalized viability) (MFE319 cells; MFE319, Concentration 39.0625): 0.968
mean_norm (normalized viability) (MFE319 cells; MFE319, Concentration 78.125): 0.9234
mean_norm (normalized viability) (MFE319 cells; MFE319, Concentration 156.25): 0.9253
mean_norm (normalized viability) (MFE319 cells; MFE319, Concentration 312.5): 0.9948
mean_norm (normalized viability) (MFE319 cells; MFE319, Concentration 625): 0.9099
mean_norm (normalized viability) (MFE319 cells; MFE319, Concentration 1250): 0.6095
mean_norm (normalized viability) (MFE319 cells; MFE319, Concentration 2500): 0.3193
mean_norm (normalized viability) (MFE319 cells; MFE319, Concentration 5000): 0.2865
mean_norm (normalized viability) (MFE319 cells; MFE319, Concentration 10000): 0.2268
relative viability, replicates (sheet 4E) (MFE319 cells; log Concentration (nM) 0.68867): 1.049 and 0.9314 and 0.9072 and 0.917
relative viability, replicates (sheet 4E) (MFE319 cells; log Concentration (nM) 0.9897): 0.9806 and 0.996 and 0.993 and 0.8521
relative viability, replicates (sheet 4E) (MFE319 cells; log Concentration (nM) 1.29073): 0.9742 and 1.022 and 0.9775 and 0.9343
relative viability, replicates (sheet 4E) (MFE319 cells; log Concentration (nM) 1.59176): 1.009 and 1.026 and 0.9509 and 0.8871
relative viability, replicates (sheet 4E) (MFE319 cells; log Concentration (nM) 1.89279): 0.9459 and 0.9044 and 0.9452 and 0.8983
relative viability, replicates (sheet 4E) (MFE319 cells; log Concentration (nM) 2.19382): 0.8852 and 0.9848 and 0.9106 and 0.9206
relative viability, replicates (sheet 4E) (MFE319 cells; log Concentration (nM) 2.49485): 1.036 and 1.016 and 1.021 and 0.9075
relative viability, replicates (sheet 4E) (MFE319 cells; log Concentration (nM) 2.79588): 0.9347 and 0.9684 and 0.8932 and 0.8433
relative viability, replicates (sheet 4E) (MFE319 cells; log Concentration (nM) 3.09691): 0.6355 and 0.6443 and 0.6092 and 0.549
relative viability, replicates (sheet 4E) (MFE319 cells; log Concentration (nM) 3.39794): 0.3339 and 0.3826 and 0.2998 and 0.2608
relative viability, replicates (sheet 4E) (MFE319 cells; log Concentration (nM) 3.69897): 0.3202 and 0.3151 and 0.2607 and 0.2498
viability, replicates (sheet 4G) (MFE319 cells; [7]): 87.9896 and 96.6442 and 88.8312
viability, replicates (sheet 4G) (MFE319 cells; [8]): 105.101 and 108.114 and 111.169
viability, replicates (sheet 4G) (MFE319 cells; p53-01 Concentration (µM) 0.15625): 94.6597 and 96.7065 and 100.094 and 89.7143
viability, replicates (sheet 4G) (MFE319 cells; p53-01 Concentration (µM) 0.3125): 90.6182 and 88.5922 and 96.6649 and 91.0338
viability, replicates (sheet 4G) (MFE319 cells; [9]): 77.5481 and 91.8338 and 80.5818
viability, replicates (sheet 4G) (MFE319 cells; p53-01 Concentration (µM) 1.25): 68.0623 and 80.2078 and 68.1143
viability, replicates (sheet 4G) (MFE319 cells; p53-01 Concentration (µM) 2.5): 46.5039 and 41.4649 and 46.0156
viability, replicates (sheet 4G) (MFE319 cells; p53-01 Concentration (µM) 5): 29.174 and 32.0623 and 26.6805
viability, replicates (sheet 4G) (MFE319 cells; p53-01 Concentration (µM) 10): 23.1584 and 24.4468 and 23.2416
rescue of viability decline by PMV6 (MFE319 cells; p53-01 with PMV6 2.5 μM, CTG 4 days): partially compete the decline in cell viability
PLK1 substrates by western blot [3]: phenocopied BI2536
PLK1 substrates by western blot [4]: not in parental cells
EC50 ([5]; 24 h, n = 4, read-out: NanoBiT EC50): 2120 nM
EC50 ([5]; 1 day, n = 6, Fig. 3b, read-out: EC50 NanoBiT ternary complex formation): 1400 nM
NLuc Signal (replicate) ([5]; Concentration 1.2207 nM, 1 day): 300 and 316 and 296 and 324 and 308
NLuc Signal, Average ([5]; Concentration 1.2207 nM, 1 day): 310
NLuc Signal (replicate) [5, 10]: 356 and 348 and 308 and 360 and 340 and 324
NLuc Signal, Average [5, 10]: 339.333
NLuc Signal (replicate) [5, 11]: 316 and 344 and 284 and 312 and 332
NLuc Signal, Average [5, 11]: 317.333
NLuc Signal (replicate) [5, 12]: 328 and 336 and 296 and 308 and 312 and 360
NLuc Signal, Average [5, 12]: 323.333
NLuc Signal (replicate) [5, 13]: 352 and 360 and 304 and 296 and 324 and 300
NLuc Signal, Average [5, 13]: 322.667
NLuc Signal (replicate) [5, 14]: 404 and 356 and 324 and 368 and 332 and 364
NLuc Signal, Average [5, 14]: 358
NLuc Signal (replicate) ([5]; Concentration 78.125 nM, 1 day): 312 and 292 and 400 and 392 and 356
NLuc Signal, Average ([5]; Concentration 78.125 nM, 1 day): 351.333
NLuc Signal (replicate) ([5]; Concentration 156.25 nM, 1 day): 380 and 352 and 372 and 324 and 360 and 332
NLuc Signal, Average ([5]; Concentration 156.25 nM, 1 day): 353.333
NLuc Signal (replicate) ([5]; Concentration 312.5 nM, 1 day): 428 and 364 and 392 and 404 and 488
NLuc Signal, Average ([5]; Concentration 312.5 nM, 1 day): 413.333
NLuc Signal (replicate) ([5]; Concentration 625 nM, 1 day): 484 and 444 and 472 and 448 and 420 and 408
NLuc Signal, Average ([5]; Concentration 625 nM, 1 day): 446
NLuc Signal (replicate) ([5]; Concentration 1250 nM, 1 day): 704 and 792 and 644 and 588
NLuc Signal, Average ([5]; Concentration 1250 nM, 1 day): 660
NLuc Signal (replicate) ([5]; Concentration 2500 nM, 1 day): 988 and 1108 and 1092 and 1436 and 1288
NLuc Signal, Average ([5]; Concentration 2500 nM, 1 day): 1167.33
NLuc Signal (replicate) ([5]; Concentration 5000 nM, 1 day): 1240 and 1080 and 1140 and 1304 and 1104 and 1468
NLuc Signal, Average ([5]; Concentration 5000 nM, 1 day): 1222.67
NLuc Signal (replicate) ([5]; Concentration 10000 nM, 1 day): 1052 and 1356 and 1056 and 1192 and 1180 and 1372
NLuc Signal, Average ([5]; Concentration 10000 nM, 1 day): 1201.33
NanoBiT mean_norm ([5]; Concentration 19.5312): 1.047
NanoBiT mean_norm ([5]; Concentration 39.0625): 1.0545
NanoBiT mean_norm ([5]; Concentration 78.125): 1.0649
NanoBiT mean_norm ([5]; Concentration 156.25): 1.0584
NanoBiT mean_norm ([5]; Concentration 312.5): 1.026
NanoBiT mean_norm ([5]; Concentration 625): 1.182
NanoBiT mean_norm ([5]; Concentration 1250): 1.238
NanoBiT mean_norm ([5]; Concentration 2500): 1.362
NanoBiT mean_norm ([5]; Concentration 5000): 1.592
NanoBiT mean_norm ([5]; Concentration 10000): 1.5997
ternary complex formation between p53-Y220C and PLK1 ([5]; NanoBiT, 1 day): induce ternary complex formation
Max_effect ([5]; sheet 5C): 1.5997
EC50 ([5]; sheet 5C, read-out: EC50): 2120 nM
expansion of mCherry^− fraction [6]: 6.9 fold
